{"source": "ChEMBL document CHEMBL3259635", "about": "“Recent developments of metal N-heterocyclic carbenes as anticancer agents” (Eur J Med Chem, 2014)", "format_in_all_cases": "functional, cell-based", "key": {"[1]": {"assay": "Cytotoxicity against rat PC12 cells", "settings": "PC-12"}, "[2]": {"assay": "Cytotoxicity against gastric cancer cells (unknown origin)", "settings": "Cancer cell lines, Stomach"}, "[3]": {"assay": "Cytotoxicity against breast cancer cells (unknown origin)", "settings": "Cancer cell lines"}, "[4]": {"assay": "Cytotoxicity against epithelial cancer cells (unknown origin)", "settings": "Cancer cell lines"}, "[5]": {"assay": "Cytotoxicity against rat PC12 cells after 24 hrs", "settings": "PC-12, 24 h"}, "[6]": {"assay": "Cytotoxicity against CCO cells", "settings": "Ictalurus punctatus"}}, "data": [{"compound": "CCCCCCCCCCCCn1cc[n+](C)c1", "values": [{"measurement": "EC50", "setting": "[1]", "value": 24, "unit": "µM"}]}, {"compound": "Cc1n(Cc2ccccc2)cc[n+]1Cc1ccccc1", "values": [{"measurement": "IC50", "setting": "[2]", "value": 35, "unit": "µM"}, {"measurement": "IC50", "setting": "[3]", "value": 35, "unit": "µM"}]}, {"compound": "CC(=O)Oc1ccc(Cn2cc[n+](-c3c(C)cc(C)cc3C)c2)cc1", "values": [{"measurement": "IC50", "setting": "[2]", "value": 10, "unit": "µM"}, {"measurement": "IC50", "setting": "[3]", "value": 20, "unit": "µM"}]}, {"compound": "Cc1n(Cc2ccccc2)cc[n+]1Cc1ccccc1C(F)(F)F", "values": [{"measurement": "IC50", "setting": "[4]", "value": 35, "unit": "µM"}]}, {"compound": "CCCCCCCC[n+]1ccn(C)c1", "values": [{"measurement": "EC50", "setting": "[5]", "value": 560, "unit": "µM"}]}, {"compound": "c1ccc(Cc2cn(Cc3ccccc3)c[n+]2Cc2ccccc2)cc1", "values": [{"measurement": "IC50", "setting": "[4]", "value": 20, "unit": "µM"}]}, {"compound": "Cc1ccc(C[n+]2ccn(Cc3ccccc3)c2)cc1", "values": [{"measurement": "IC50", "setting": "[4]", "value": 30, "unit": "µM"}]}, {"compound": "CCCCn1cc[n+](C)c1", "values": [{"measurement": "EC50", "setting": "[1]", "value": "> 9120", "unit": "µM"}]}, {"compound": "CCCn1cc[n+](C)c1", "values": [{"measurement": "EC50", "setting": "[6]", "value": "> 10", "unit": "µM"}]}, {"compound": "c1c[n+](C23CC4CC(CC(C4)C2)C3)cn1C12CC3CC(CC(C3)C1)C2", "values": [{"measurement": "IC50", "setting": "[4]", "value": 1, "unit": "µM"}]}, {"compound": "CC(=O)Oc1ccc(Cn2cc[n+](Cc3ccccc3)c2C)cc1", "values": [{"measurement": "IC50", "setting": "[4]", "value": 28, "unit": "µM"}]}, {"compound": "CCCCCCCn1cc[n+](C)c1.O=S(=O)([N-]S(=O)(=O)C(F)(F)F)C(F)(F)F", "values": [{"measurement": "EC50", "setting": "[6]", "value": "< 0.1", "unit": "µM"}]}, {"compound": "CCCCCCCCn1cc[n+](C)c1.O=S(=O)([N-]S(=O)(=O)C(F)(F)F)C(F)(F)F", "values": [{"measurement": "EC50", "setting": "[6]", "value": "< 0.1", "unit": "µM"}]}, {"compound": "c1ccc(CCn2cc[n+](CCc3ccccc3)c2)cc1", "values": [{"measurement": "IC50", "setting": "[4]", "value": 20, "unit": "µM"}]}]}
